Measurements reported in US8680076B2, “Methods of treatment, improvement and prevention using haloaryl substituted aminopurines” (Signal Pharmaceuticals, LLC, priority 2010, dated 2014).
“Also recorded” adds a separate entry of the source.

Experiments:
[1] = test system: fibroblasts from SSc patients; experiment: MTT assay, SSc fibroblast viability; format: cell-based, human; conditions: 1 μM, 24-hr incubation
Protocol: (§1) Dermal fibroblasts from two SSc patients were treated for 24 hours (hr) with Compound JNKi-1 at concentrations from 0.1 μM to 10 μM (0.5% DMSO/99.5% cell culture media). To study the effect of Compound JNKi-1 on growth factor-induced collagen expression, recombinant transforming growth factor beta (TGF-β) (final concentration of 10 ng/mL) or platelet-derived growth factor-BB (PDGF-BB) (final concentration of 40 ng/mL) were added to cells 2 hr after the addition of JNK-inhibitor Compound JNKi-1 for 24 hr. The expression of collagen proteins was analyzed by SirCol assay. The messenger ribonucleic acid (mRNA) levels of extracellular proteins were measured by real-time polymerase chain reaction (PCR). The β-actin mRNA was used as internal control for the measurement of Collagen 1a1 mRNA using PCR. Fibroblast proliferation assay was performed in the presence or absence of 1 μM Compound JNKi-1 for 24 hr with the (3-(4,5-Dimethylthiazol-2-yl)-2,5-diphenyltetrazolium bromide) (MTT) assay.
(§2) The isolation of fibroblasts from human SSc patients and culture conditions used in this study have been previously described (Akhmetshina A, Dees C, Pileckyte M, Maurer B, Axmann R, Jüngel A, et al., Dual inhibition of c-abl and PDGF receptor signaling by dasatinib and nilotinib for the treatment of dermal fibrosis, FASEB J. 2008; 22(7):2214-22). […] Data are expressed as mean±standard error of the mean (SEM).

[2] = test system: fibroblasts from SSc patients; experiment: TGF-β and PDGF-induced total collagen secretion (SirCol assay); format: cell-based, human; conditions: 1 μM
Protocol: as §1
as §2, with “(SEM). […]” for “(SEM).”

[3] = test system: phospho c-Jun (JNK) in human skin; experiment: UVB-irradiated human skin, phospho c-Jun IHC (3-way crossover study); format: in vivo; conditions: for median subjective score of phospho c-Jun: scale 0-4, placebo score 4
Protocol: (§3) The inhibitory effect of JNKi-1 on JNK was evaluated by assessing the status of the downstream substrate c-Jun (“cJun”) and phospho-c-Jun (or “p-cJun”) following UV irradiation of human skin.
(§4) The study was designed as randomized, double blind, placebo controlled, multiple dose, 3-way crossover study. Fifteen subjects were randomized to one of 3 sequences (5 subjects per sequence) as outlined below (see Table 3). There was a 7-day to 10 day washout period (no more than 14 days) from the last dose of the previous period to the first dose of the next period.
(§5) Fifteen patients enrolled, 14 completed the study and were included in the PD and PK analyses; all were healthy Caucasian male volunteers with Fitzpatrick skin type 2. The mean age was […] (20-49 years) and weight was 81 kg (64-96 kg). On the evening of Day-1, patients started fasting (at least an 8-hour fast prior to dosing on Day 1). Subjects received treatment A, B or C in Periods 1 to 3 under fasting conditions in an order based on the randomization scheme. Subjects went through the same procedures (except for the change in treatment) for all 3 periods, with the required washout in between periods. No strenuous activities were permitted during confinement. All efforts were made to keep activities, environment, food, procedures, and schedule between treatment periods identical.
(§6) On Day 6, subjects received a 2×MED UV dose to two sites on the buttock. One punch biopsy (approximately 3 mm in diameter by 0.8 mm in depth) was taken from one of the two UV irradiated sites. The punch biopsies were taken at 8 (±5 minutes) hours post UV exposure on Day 6.
(§7) Skin specimens from the biopsies was analyzed for phospho c-Jun and total c-Jun using IHC assay. Phospho c-Jun was quantified using a 0-4 subjective grading scales and/or objective scoring using an automated system, i.e. a laser scanning cytometer (LSC), evaluating the integrated intensity of staining measured optically.
(§8) Biopsies were analyzed following the procedures described below to evaluate phospho c-Jun and c-Jun expression using IHC assay. The method employed to assess JNK activation was a two antibody IHC assay that employed a primary antibody, directed against the target, and a secondary antibody conjugated with a chromogenic enzyme. Thus, the method was a two-step immunohistochemical assay designed to interrogate the target, c-Jun and phospho c-Jun. Any changes in JNK activity were measurable in the amounts of these target molecules, c-Jun and phospho c-Jun. The secondary antibody-reporter conjugate deposited a red color when incubated with the substrate reaction mix, thus marking the location of the primary antibody target complex. The red color was then recorded with standard bright-field illumination using a Nikon microscope. The microscope images were then photographed and electronic images were scored (blinded) by three independent and trained scorers using the following guidelines. A score of 0 indicated staining of 0-19% of the epithelial keratinocyte nuclei; a score of 1 indicated staining of 20-39% of the epithelial keratinocyte nuclei; a score of 2 indicated staining of 40-59% of the epithelial keratinocyte nuclei; a score of 3 indicated staining of 60-79% of the epithelial keratinocyte nuclei; and a score of 4 indicated staining of 80-100% of the epithelial keratinocyte nuclei. FIG. 21 depicts representative immunostaining for the respective scores.
(§9) For each tissue, a count of nuclei in the epithelial layer was obtained. All phospho c-Jun or c-Jun positive nuclei were counted as well as their integral (intensity). A score was calculated for each: score=(p-cJun or cJun positive nuclei×average Intensity)/Total nuclei.

[4] = test system: c-Jun (JNK) in human skin; experiment: UVB-irradiated human skin, c-Jun IHC (3-way crossover study); format: in vivo; conditions: for median subjective score of c-Jun: scale 0-4
Protocol: as §3, §4, §5, §6, §7, §8, §9

O[C@H]1CC[C@H](Nc2ncc3nc(Nc4c(F)cc(F)cc4F)n([C@H]4CCOC4)c3n2)CC1 [JNKi-1, 4-((9-((3S)-tetrahydro-3-furanyl)-8-((2,4,6-trifluorophenyl)amino)-9H-purin-2-yl)amino)-trans-cyclohexanol]
cytotoxic effect / cell viability (MTT) [1]: does not exert its inhibitory effects indirectly by reducing cell viability; also recorded: no cytotoxic effect
TGF-β and PDGF-induced collagen secretion [2]: modestly inhibited
patients with reduced phospho c-Jun, subjective scoring ([3]; 75 mg QD x 6 days): 57%
patients with reduced phospho c-Jun, subjective scoring ([3]; 75 mg QD x 6 days, 2xMED UVB, biopsy 8 hours post UV): 8/14
median subjective score of phospho c-Jun ([3]; 75 mg QD x 6 days): 3
frequency of high phospho c-Jun subjective scores ([3]; 75 mg and 200 mg vs placebo): fewer subjects had high p-cJun scores; also recorded: fewer patients had high scores
phospho c-Jun by laser scanning cytometry (LSC) analysis ([3]; 75 mg or 200 mg): Decrease in phospho c-Jun was confirmed
odds ratio, phospho c-Jun scores 0, 1, 2 vs. scores 3, 4 (logistic regression) ([3]; 75 mg vs. placebo): 10.96
patients with inhibited phospho c-Jun, subjective scoring ([3]; 200 mg QD x 6 days): 78%
patients with inhibited phospho c-Jun, subjective scoring ([3]; 200 mg QD x 6 days, 2xMED UVB, biopsy 8 hours post UV): 11/14
median subjective score of phospho c-Jun ([3]; 200 mg QD x 6 days): 1
odds ratio, phospho c-Jun scores 0, 1, 2 vs. scores 3, 4 (logistic regression) ([3]; 200 mg vs. placebo): 41.89
elevation of phospho c-Jun induced by the UVB irradiation ([3]; oral, about 75 mg to about 200 mg, in a majority of patients): partially or completely inhibited
phospho c-Jun immunostaining, percentage of positive epithelial nuclei, Patient 15 ([3]; versus placebo): significantly decreased
median subjective score of c-Jun ([4]; 75 mg QD x 6 days): 3
odds ratio, c-Jun scores 0, 1, 2 vs. scores 3, 4 (logistic regression) ([4]; 75 mg vs. placebo): 3.69
median subjective score of c-Jun ([4]; 200 mg QD x 6 days): 2
frequency of high c-Jun subjective scores ([4]; 200 mg vs placebo): fewer subjects had high cJun scores; also recorded: fewer patients had high scores
odds ratio, c-Jun scores 0, 1, 2 vs. scores 3, 4 (logistic regression) ([4]; 200 mg vs. placebo): 9.30
c-Jun immunostaining, percentage of positive epithelial nuclei, Patient 15 ([4]; versus placebo): significantly decreased
